Type in all cases: physicochemical
Data set [1] is described as follows: Stability of second liquid vitamin formulation (Example 1), stored at 40° C., HPLC. Particulars: for CONC at T = 0: immediately after preparation; for CONC at T = 1 week / CONC at T = 2 weeks / CONC at T = 3 weeks / CONC at T = 4 weeks: stored at 40° C. How it is done: (§1) The stability of each formulation in the composition each was determined over a 4 weeks period. The concentration of vitamin in the formulation was analysed using standard analytical methods (high performance liquid chromatography). The formulations were stored at 40° C. over the test period.

The nature of data set [2]: Stability of third liquid vitamin formulation (vitamin K3, Example 1), stored at 40° C., HPLC. How it is done: as §1
The nature of data set [3]: Stability of first liquid vitamin formulation (Example 1), stored at 40° C., HPLC. Particulars: for CONC at T = 0: immediately after preparation; for CONC at T = 2 weeks / CONC at T = 4 weeks: stored at 40° C. How it is done:
as §1

A short description of data set [4]: Stability of vitamin A in poultry feed (Example 3), 20° C., 80% humidity, HPLC. Particulars: four weeks. How it is done: A standard poultry feed comprising a digestible carbohydrate, a source of fat, a source of amino acid, vitamins and minerals as detailed in Table 3.1 below was used in this example Two sources of vitamin A are compared. Mixture A contained the vitamin composition in the liquid form according to the present invention whilst mixture B contained the conventional powdered vitamin composition. The vitamin pre-mixes were added to the feed. The stability of vitamin A in both feed samples was determined over a four weeks period. The feeds were stored at 20° C. and under 80% humidity. The concentration of vitamin A in the feed was measured using conventional analytical methods (high performance liquid chromatography).

For `Cc1cc2nc3c(=O)[nH]c(=O)nc-3n(C[C@H](O)[C@H](O)[C@H](O)CO)c2cc1C` [Vitamin B2, riboflavin], in data set [1], the “CONC at T = 0” value was 1 g % g of solution, the “CONC at T = 1 week” value is listed as 1.08 g % g of solution, the “CONC at T = 2 weeks” value is on record as 1.04 g % g of solution and the “CONC at T = 3 weeks” value is 1.04 g % g of solution. Besides, the “CONC at T = 4 weeks” value in data set [1] was 1.01 g % g of solution.
Take `NC(=O)c1cccnc1` [Vitamin B3, niacinamide]: in data set [1], the “CONC at T = 0” value was 8 g % g of solution, the “CONC at T = 1 week” value was 7.98 g % g of solution, the “CONC at T = 2 weeks” value is 7.8 g % g of solution and the “CONC at T = 3 weeks” value was 7.85 g % g of solution. For the same compound, the “CONC at T = 4 weeks” value in data set [1] is 8 g % g of solution.
On to `CC(C)(CO)[C@@H](O)C(=O)NCCCO` [Vitamin B5, dexpanthénol], for which, in data set [1], the “CONC at T = 0” value is reported as 2.63 g % g of solution, the “CONC at T = 1 week” value is reported as 2.64 g % g of solution, the “CONC at T = 2 weeks” value was 2.65 g % g of solution and the “CONC at T = 3 weeks” value is reported as 2.64 g % g of solution. The “CONC at T = 4 weeks” value in data set [1] was 2.69 g % g of solution.
With `Cc1ncc(CO)c(CO)c1O.OCl` [Vitamin B6, pyridoxine chlorohydrate], in data set [1], the “CONC at T = 0” value was 0.355 g % g of solution, the “CONC at T = 1 week” value is recorded as 0.32 g % g of solution, the “CONC at T = 2 weeks” value is given as 0.33 g % g of solution and the “CONC at T = 3 weeks” value is listed as 0.333 g % g of solution. In addition, the “CONC at T = 4 weeks” value in data set [1] is 0.329 g % g of solution.
Taken in the same sequence, the figures for `O=C(O)CCCC[C@@H]1SC[C@@H]2NC(=O)N[C@@H]21` [Vitamin H, biotine] were 0.021 g % g of solution, 0.022 g % g of solution, 0.02 g % g of solution, 0.021 g % g of solution and 0.021 g % g of solution.
Consider `CC1=CC(=O)c2ccccc2C1=O` [Vitamin K3, menadione], for which, in data set [2] (40° C., 4 weeks), the “Stability of vitamin K3 in the third liquid formulation (in words)” value is on record as “stable”. The “CONC at T = 0” value in data set [2] (third formulation, immediately after preparation) is reported as 2.00 g % g of solution. For the same compound, the “CONC at T = 2 weeks” value in data set [2] (third formulation, stored at 40° C., 2 weeks) is listed as 1.93 g % g of solution. In data set [2] (third formulation, stored at 40° C., 4 weeks), the “CONC at T = 4 weeks” value is 1.92 g % g of solution.
Regarding Oil of Vitamin A, in data set [3], the “CONC at T = 0” value is on record as 120500 UI/g, the “CONC at T = 2 weeks” value worked out at 118500 UI/g and the “CONC at T = 4 weeks” value came out at 120400 UI/g. Also, the “Stability of vitamin A in feed, liquid pre-mix versus powdered pre-mix (in words)” value in data set [4] was “as stable in the feed containing the liquid pre-mix as in the conventional powdered pre-mix”.
Regarding Oil of Vitamin D3, in data set [3], the “CONC at T = 0” value came to 56200 UI/g, the “CONC at T = 2 weeks” value was 56160 UI/g and the “CONC at T = 4 weeks” value came to 52800 UI/g.
On the same counts, the results for Oil of Vitamin E are 27.6%, 29.1% and 29.3%.
Regarding Vitamin B12, in data set [3], the “CONC at T = 0” value came to 0.0202%, the “CONC at T = 2 weeks” value is listed as 0.0165% and the “CONC at T = 4 weeks” value came out at 0.0157%.

(Values after patent publication US6852332B2, “Liquid vitamin composition” (Adisseo France S.A.S., priority 2000, dated 2005).)
